Test systems include OVCAR-3 ovarian; MALME-3M melanoma; LOX IMVI melanoma; SF-539 CNS; UO-31 renal; NCI-H522 lung; TK-10 renal; NCI/ADR-RES ovarian; NCI-H226 lung; HS 578T breast; IGROV1 ovarian; OVCAR-8 ovarian; DU-145 prostate; A549 NSCLC; SW-620 colon; 786-0 renal; ACHN renal; MDA-MB-435; NCI-H23 lung.
Common to all, as to experiment: NCI tumour cell line growth inhibition, 48 h

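Cultured in 96-well plates, cells were exposed to test compound for 48 hours across five concentrations. TGI is the concentration that stops growth completely.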

For the molecule `COC(=O)c1ccccc1C1CN=NC12Cc1c(C)c3c(c(C)c1C2=O)CCC3` (centres undefined), the TGI in the test on OVCAR-3 ovarian, in the test with MALME-3M melanoma, with LOX IMVI melanoma, in the test on SF-539 CNS, in the test with UO-31 renal and in the test on NCI-H522 lung was greater than 100 µM in each case. In addition, the TGI in the test with TK-10 renal is 90.8 µM; with NCI/ADR-RES ovarian, greater than 100 µM; in the test with NCI-H226 lung it was greater than 100 µM; with HS 578T breast, greater than 100 µM; in the test on IGROV1 ovarian, greater than 100 µM; in the test with OVCAR-8 ovarian, greater than 100 µM. In addition, the TGI with DU-145 prostate, in the test with A549 NSCLC, with SW-620 colon, in the test with 786-0 renal, in the test with ACHN renal and in the test with MDA-MB-435 was greater than 100 µM throughout. For the same molecule, the TGI with NCI-H23 lung was greater than 100 µM.

The record behind these values is PubChem BioAssay (NCI).
